Assay results reported in patent US20150133497A1, “GLYCINE REUPTAKE INHIBITOR AND USE THEREOF” (Beijing Medisan Technology Co., Ltd., priority 2011, published 2015).

Experiments:
[1] = test system: spontaneous activity in rats; experiment: Effect of test compound on spontaneous activity in rats (LMA); assay type: in vivo, Wistar rats; conditions: 5.0, 10 and 30 mg/kg i.p.; 60 minutes after administration; recorded 30-60 minutes; P>0.05, Dunnett's test
Protocol: (§1) Animals used for experiments were adult male Wistar rats weighing 180˜250 g, housed in groups of 6/cages, regulated with a 12/12 hour light/dark cycle, maintained at a constant temperature of 23±1° C. and a humidity of 50˜60% and allowed ad libitum access to rodent chow and water. After animals were purchased from the Experimental Animal Center, an adaptive housing was performed for a week, all the animals were randomly divided into two groups:
(§2) Group one: negative control group, intraperitoneally injected with 1% DMSO in physiological saline (10.0 ml/kg, i.p.);
Group two: experimental drug group, the rats were intraperitoneally injected respectively with different doses of test compound Co. 1: 5.0, 10 and 30 mg/kg, i.p., the drug was formulated in 1% DMSO in physiological saline.
The experiment employed Shanghai Jiliang animal behavior video analysis system, wherein the experimental environment was kept absolutely silent, when grabbing animals and administrating, movements were gentle to minimize adverse reactions of mental condition and emotion brought by external stimulus. […] The spontaneous activity box was connected to a recording apparatus and the activity conditions of rats were recorded for 30-60 minutes. The effect of drug or control on spontaneous activity in rats was determined.

[2] = test system: high-activity behaviors in rats induced by Amphetamine; experiment: Effect on high-activity behaviors in rats induced by Amphetamine; assay type: in vivo, Wistar rats; conditions: for inhibition of high-activity behaviors in rats induced by Amphetamine: Co. 1 5, 10 and 30 mg/kg i.p., Olanzepine 10 mg/kg i.p., Amphetamine 1.0 mg/kg s.c., P<0.01 vs Amphetamine group
Protocol: as §1, with “in group” for “in groups”, “into three” for “into two”
as §2
Group two: experimental drug group, the rats were intraperitoneally injected respectively with different amounts of test compound Co. 1: 5, 10 and 30 mg/kg, i.p., the drug was formulated in 1% DMSO in physiological saline.
Group three: positive drug control group, the rats were intraperitoneally injected with Olanzepine (10 mg/kg, i.p., the drug was formulated in 1% DMSO in physiological saline)
The experiment employed Shanghai Jiliang animal behavior video analysis system, wherein the experimental environment was kept absolutely silent, when grabbing animals and administrating, movements were gentle to minimize adverse reactions of mental condition and emotion brought by external stimulus. The rats were moved from the animal room to a quiet lab and adapted for at least two hours. Subcutaneous injection of Amphetamine (1.0 mg/kg, s.c.), or 1% DMSO in physiological saline as control, was administrated. 30 minutes later, the animals were orally administrated of the compound, or physiological saline as control. The rats were placed in a spontaneous activity box, which was placed in an absolutely silent environment. The spontaneous activity box was connected to a recording apparatus and the activity conditions of rats were recorded for 30-60 minutes. The effect of drug or control on spontaneous activity in rats was determined.

[3] = test system: high-activity behaviors in rats induced by PCP; experiment: Effect on high-activity behaviors in rats induced by PCP; assay type: in vivo, Wistar rats; conditions: for inhibition of high-activity behaviors in rats induced by PCP: Co. 1 5, 10 and 30 mg/kg i.p., Olanzepine 10 mg/kg i.p., PCP 5.0 mg/kg s.c., P<0.01 vs PCP group
Protocol: as §1, with “in group” for “in groups”, “into three” for “into two”
Group 1: negative control group, intraperitoneally injected with 1% DMSO in physiological saline (10.0 ml/kg, i.p.);
Group 2: experimental drug group, the rats were intraperitoneally injected respectively with different doses of test compound Co. 1: 5.0, 10 and 30 mg/kg, i.p., the drug was formulated in 1% DMSO in physiological saline.
Group 3: positive drug control group, the rats were intraperitoneally injected with Olanzepine (10 mg/kg, i.p., the drug was formulated in 1% DMSO in physiological saline)
The experiment employed Shanghai Jiliang animal behavior video analysis system, wherein the experimental environment was kept absolutely silent, when grabbing animals and administrating, movements were gentle to minimize adverse reactions of mental condition and emotion brought by external stimulus. The rats were moved from the animal room to a quiet lab and adapted for at least two hours. Subcutaneous injection of PCP (5.0 mg/kg, s.c.), or 1% DMSO in physiological saline as control, was administrated. 30 minutes later, the animals were intraperitoneally injected with the test compound, or 1% DMSO in physiological saline as control. The rats were placed in a spontaneous activity box, which was placed in an absolutely silent environment. The spontaneous activity box was connected to a recording apparatus and the activity conditions of rats were recorded for 30-60 minutes. The effect of drug or control on spontaneous activity in […] was determined.

NET = NET (Homo sapiens, UniProt P23975); experiment: Selectivity, NET; assay type: cell-based; conditions: read-out: Selectivity NET pEC50 (converted)
NET, sequence (P23975 whole entry): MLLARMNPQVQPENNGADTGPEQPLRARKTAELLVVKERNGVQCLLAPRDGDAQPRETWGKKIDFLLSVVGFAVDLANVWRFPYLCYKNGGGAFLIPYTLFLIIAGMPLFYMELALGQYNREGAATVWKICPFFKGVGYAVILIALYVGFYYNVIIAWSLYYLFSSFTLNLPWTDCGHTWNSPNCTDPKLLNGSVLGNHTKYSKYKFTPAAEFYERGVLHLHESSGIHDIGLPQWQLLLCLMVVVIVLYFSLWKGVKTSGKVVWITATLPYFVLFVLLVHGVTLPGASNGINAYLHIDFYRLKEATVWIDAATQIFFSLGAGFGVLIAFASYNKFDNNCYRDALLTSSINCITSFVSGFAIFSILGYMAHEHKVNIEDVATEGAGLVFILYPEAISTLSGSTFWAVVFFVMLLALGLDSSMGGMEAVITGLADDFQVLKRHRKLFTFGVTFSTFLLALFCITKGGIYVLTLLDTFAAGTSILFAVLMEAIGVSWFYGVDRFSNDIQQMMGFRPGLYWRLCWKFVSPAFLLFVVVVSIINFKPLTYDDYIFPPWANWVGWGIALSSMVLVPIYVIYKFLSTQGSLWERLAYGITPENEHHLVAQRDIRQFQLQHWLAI

Rat PK = assay type: in vivo
Cmax in rat CSF = assay type: in vivo; conditions: sc, 10 mg/kg s.c.
GlyT1 = target: T1, GlyT1 (Homo sapiens, UniProt P48067); experiment: Anti-glycine reuptake activity, GlyT1; assay type: cell-based; conditions: listed as head criterion > 6; mean of three experiments; read-out: GlyT1 pEC50 (converted)
T1 sequence (P48067 1-706): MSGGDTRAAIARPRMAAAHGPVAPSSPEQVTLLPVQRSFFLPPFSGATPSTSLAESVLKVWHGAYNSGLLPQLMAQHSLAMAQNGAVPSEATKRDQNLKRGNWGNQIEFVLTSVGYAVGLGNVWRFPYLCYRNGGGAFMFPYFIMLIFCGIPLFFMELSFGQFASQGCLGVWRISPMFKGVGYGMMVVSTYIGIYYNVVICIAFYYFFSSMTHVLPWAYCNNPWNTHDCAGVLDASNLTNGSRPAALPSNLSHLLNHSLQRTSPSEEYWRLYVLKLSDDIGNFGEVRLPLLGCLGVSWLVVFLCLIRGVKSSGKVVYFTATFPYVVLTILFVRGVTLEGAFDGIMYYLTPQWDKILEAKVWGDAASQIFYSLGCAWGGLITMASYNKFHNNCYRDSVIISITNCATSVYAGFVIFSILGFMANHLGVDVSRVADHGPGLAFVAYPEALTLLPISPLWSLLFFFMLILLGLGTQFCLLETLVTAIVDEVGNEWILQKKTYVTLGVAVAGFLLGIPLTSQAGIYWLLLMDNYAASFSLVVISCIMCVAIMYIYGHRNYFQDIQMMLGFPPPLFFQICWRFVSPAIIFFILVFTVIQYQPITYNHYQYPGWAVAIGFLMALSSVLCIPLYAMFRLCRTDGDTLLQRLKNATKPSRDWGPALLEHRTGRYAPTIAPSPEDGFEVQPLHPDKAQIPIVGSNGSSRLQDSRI
Text: (§3) methods commonly used in the art were employed to determine the anti-glycine reuptake activity of the compound of the present invention. The experiment was repeated for three times and the mean value was taken.

G1yT2 = target: T2, G1yT2 (Homo sapiens, UniProt Q9Y345); experiment: Selectivity vs GlyT2; assay type: cell-based; conditions: listed as head criterion >10 × vs G1yT2
T2 sequence (Q9Y345 1-797): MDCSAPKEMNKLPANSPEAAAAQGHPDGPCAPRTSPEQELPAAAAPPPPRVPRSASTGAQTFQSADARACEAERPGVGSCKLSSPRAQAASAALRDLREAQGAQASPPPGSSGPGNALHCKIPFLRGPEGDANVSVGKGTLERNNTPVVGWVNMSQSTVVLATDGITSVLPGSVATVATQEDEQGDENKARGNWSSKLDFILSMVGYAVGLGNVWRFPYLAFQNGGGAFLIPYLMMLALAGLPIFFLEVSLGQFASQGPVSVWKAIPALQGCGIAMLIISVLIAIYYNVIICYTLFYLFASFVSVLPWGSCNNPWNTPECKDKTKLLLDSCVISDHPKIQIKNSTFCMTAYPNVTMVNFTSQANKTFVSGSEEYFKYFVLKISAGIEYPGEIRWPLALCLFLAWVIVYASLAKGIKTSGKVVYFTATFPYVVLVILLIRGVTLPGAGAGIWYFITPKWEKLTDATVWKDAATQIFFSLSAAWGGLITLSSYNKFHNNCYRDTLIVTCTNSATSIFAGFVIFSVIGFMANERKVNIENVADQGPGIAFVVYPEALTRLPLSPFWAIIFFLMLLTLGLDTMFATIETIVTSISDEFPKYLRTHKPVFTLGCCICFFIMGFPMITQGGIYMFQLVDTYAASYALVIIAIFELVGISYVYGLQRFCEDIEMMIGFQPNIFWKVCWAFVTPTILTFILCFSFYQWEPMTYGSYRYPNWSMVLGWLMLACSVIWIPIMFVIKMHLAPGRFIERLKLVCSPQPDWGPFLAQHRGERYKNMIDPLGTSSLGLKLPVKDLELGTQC
Text: as §3

in vitro = in vitro ADME; conditions: microsomes
Text: as §3

hERG = hERG (Homo sapiens, UniProt Q12809); experiment: hERG (pKi); assay type: binding
hERG, sequence (Q12809 whole entry): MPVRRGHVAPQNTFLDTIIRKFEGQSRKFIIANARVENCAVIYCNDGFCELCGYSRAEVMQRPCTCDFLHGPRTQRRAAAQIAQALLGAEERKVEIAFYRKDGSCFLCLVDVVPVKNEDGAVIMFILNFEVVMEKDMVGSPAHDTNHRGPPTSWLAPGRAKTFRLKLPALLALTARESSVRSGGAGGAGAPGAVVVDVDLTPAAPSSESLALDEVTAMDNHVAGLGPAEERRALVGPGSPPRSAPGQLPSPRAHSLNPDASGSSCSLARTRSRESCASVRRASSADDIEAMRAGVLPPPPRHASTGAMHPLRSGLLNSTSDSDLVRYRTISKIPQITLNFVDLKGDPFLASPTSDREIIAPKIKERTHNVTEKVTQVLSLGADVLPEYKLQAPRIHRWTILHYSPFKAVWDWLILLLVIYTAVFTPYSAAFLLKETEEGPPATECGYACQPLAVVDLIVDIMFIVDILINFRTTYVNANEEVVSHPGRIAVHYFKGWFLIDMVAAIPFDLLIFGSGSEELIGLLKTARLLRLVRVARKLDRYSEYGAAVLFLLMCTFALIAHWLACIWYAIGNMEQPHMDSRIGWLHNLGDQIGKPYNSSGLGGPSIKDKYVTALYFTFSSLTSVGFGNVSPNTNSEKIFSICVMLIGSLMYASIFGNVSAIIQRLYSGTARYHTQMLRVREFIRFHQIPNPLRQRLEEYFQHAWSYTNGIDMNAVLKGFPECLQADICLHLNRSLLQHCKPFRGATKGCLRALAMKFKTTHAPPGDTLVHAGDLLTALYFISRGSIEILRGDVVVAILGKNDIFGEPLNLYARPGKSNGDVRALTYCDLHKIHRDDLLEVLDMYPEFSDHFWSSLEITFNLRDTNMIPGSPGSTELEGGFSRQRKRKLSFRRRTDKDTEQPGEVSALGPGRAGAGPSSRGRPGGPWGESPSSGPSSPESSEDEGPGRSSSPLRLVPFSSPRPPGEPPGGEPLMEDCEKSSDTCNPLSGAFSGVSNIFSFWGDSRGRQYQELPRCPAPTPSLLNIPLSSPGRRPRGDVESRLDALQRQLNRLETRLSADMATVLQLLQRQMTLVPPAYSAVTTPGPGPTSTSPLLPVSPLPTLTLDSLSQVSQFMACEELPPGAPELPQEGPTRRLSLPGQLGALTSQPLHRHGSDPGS

[4] = Measured Clint, R-heps (hepatocytes); assay type: in vitro ADME, rat

Row | effect on spontaneous activity in rats [1] | EC50 (NET) [nM] | Rat PK C1 (Rat PK) [mL/min/kg] | Rat PK P (Rat PK) [%] | Cmax (Cmax in rat CSF) [nM] | EC50 (GlyT1) [nM] | G1yT2 effect at 10-5 M (G1yT2) [% @ 10-5 M] | microsomal CLint (in vitro; human) [µL/min/mg] | microsomal CLint (in vitro; rat) [µL/min/mg] | Measured Clint R-heps [4] | Structure (SMILES) | inhibition of high-activity behaviors in rats induced by Amphetamine [2] | inhibitory effect on Amphetamine-induced high-activity behaviors compared with the positive drug Olanzepine ([2]; P<0.05, Dunnett's test, compared with the Olanzepine/Amphetamine group) | inhibition of high-activity behaviors in rats induced by PCP [3] | inhibitory effect on PCP-induced high-activity behaviors compared with the positive drug Olanzepine ([3]; P<0.05, Dunnett's test, compared with the Olanzepine/PCP group) | Ki (hERG) [nM]
1 | no significant effect |  |  |  |  |  |  |  |  |  | Cc1cc(C(=O)N[C@@H](CN2CCCCC2)C(C)C)cc(-c2ccccc2C(F)(F)F)n1 [Co. 1] | significantly inhibited | stronger | significantly inhibited | stronger | 
2 |  | 316 | 52 | < 1 | 60 | 63.1 | 14 | 135 | 81 | R-heps 15 ul/ml/106 cells | CCC(C)[C@@H](CN1CCCCC1)NC(=O)c1cc(C)nc(-c2cc(C)ccc2C(F)(F)F)c1 (some centres unmarked) [Co. 2] |  |  |  |  | 12600
3 |  |  |  |  |  |  |  |  |  |  | Cc1cc2c(s1)Nc1ccccc1N=C2N1CCN(C)CC1 [Olanzepine, reference compound] | significantly inhibited |  | significantly inhibited |  | 
